The numbers were not newly measured in patent US20130165526A1, “TOPICAL TREATMENT WITH DAPSONE IN G6PD-DEFICIENT PATIENTS” (ALLERGAN, INC., priority 2007, published 2013), which cites them from elsewhere.

This data set deals with P. acnes. Particulars: Godowski et al., 2000.

For the compound `Nc1ccc(S(=O)(=O)c2ccc(N)cc2)cc1` [Dapsone, bis(4-aminophenyl)sulfone], the Minimum inhibitory concentration entry was “about 1 microgram per milliliter”.
